Measurements from article PMC10146957, “Systematic Studies on Anti-Cancer Evaluation of Stilbene and Dibenzo[b,f]oxepine Derivatives” (Molecules, 2023).
Like-named read-outs stand apart in the source and are kept apart here.

How the values were obtained:
[1] = MTT cytotoxicity assay, HCT116 cells; assay type: cell-based, human; settings: human, HCT116 cells (human colorectal carcinoma), 100 μM, 48 h of treatment, read-out: cell viability
Procedure: (§1) Cells were cultured in a humidified incubator at 37 °C under 5% CO2. Human colorectal carcinoma (HCT116) cells were grown in McCoy’s 5A Medium (ATCC, Catalog No. 30-2007), human breast adenocarcinoma (MCF-7) and human dermal fibroblasts (HDF-A) cells were maintained in Dulbecco’s Modified Eagle’s Medium (DMEM, Sigma D5546) supplemented with 2 mM L-glutamine. Human embryonic kidney (HEK293) cell line was cultured in Dulbecco’s Modified Eagle’s Medium (DMEM, Gibco 31966-021). All culture media were supplemented with 1% Penicillin-Streptomycin (Sigma-Aldrich, P4333) and 10% fetal bovine serum (Gibco, 10270-106). Cells were sub-cultured at approximately 80–90% confluency to maintain the culture in the logarithmic growth phase.
(§2) Cells were seeded at a 96-well plate at the density of 7 × 10^3 cells per well and allowed to grow for 24 h. Afterward, the medium was aspirated and fresh medium was added (200 μL) with serial dilutions (100 − 10 μM) of tested compounds or DMSO at corresponding concentrations as a control. Following 48 h of incubation, the medium was replaced with phenol red-free medium (100 μL) containing MTT (3-(4,5-dimethylthiazol-2-yl)-2,5-diphenyl-2H-tetrazolium bromide, 0.5 mg/mL) and replaced in the incubator for 4 h. The formed formazan was dissolved in DMSO (100 μL) followed by incubation of the mixture at 37 °C for 10 min. The absorbance was measured at 540 nm. After blank subtraction, the half maximal effective concentration (EC50) was calculated by GraphPad Prism software (GraphPad Software Inc, San Diego, CA, USA).

HCT116 cells [2] = experiment: MTT cytotoxicity assay, HCT116 cells; assay type: cell-based, human; settings: for IC50: Homo sapiens, HCT-116, 48 h, mean ± SEM; for cell viability (in words): 100 μM, 48 h of treatment
Procedure: as §1, §2

MCF-7 cells = experiment: MTT cytotoxicity assay, MCF-7 cells; assay type: cell-based; settings: Homo sapiens, MCF7, 48 h, mean ± SEM
Procedure: as §1, §2

HEK293 cells = experiment: MTT cytotoxicity assay, HEK293 cells; assay type: cell-based; settings: Homo sapiens, 48 h, mean ± SEM
Procedure: as §1, §2

HDF-A cells = experiment: MTT cytotoxicity assay, HDF-A cells; assay type: cell-based; settings: Homo sapiens, HDFa
Procedure: as §1, §2

HCT116 cells [3] = experiment: Immunofluorescence of microtubular network (anti-α-tubulin 12G10); assay type: cell-based, human; settings: 60 µm of compound, 24 h, anti-α-tubulin staining
Procedure: Cells were seeded on coverslips at a 24-well plate at a density of 5 × 10^4 cells per well and allowed to grow overnight. Next medium was replaced with a medium containing 60 μM solution of the selected compound and incubated for 24 h. Then, cells were fixed and permeabilized with 100% methanol at −20 °C for 15 min and subsequently washed three times with PBS at room temperature. After 1 h blocking with 3% BSA/PBS at 4 °C, slides were incubated with anti-alpha-tubulin 12G10 primary antibody (Developmental Studies Hybridoma Bank, University of Iowa, Iowa City, IA, USA) (diluted to 2 µg/mL in 3% BSA/PBS) overnight at 4 °C. After 3 × 10 min washing with PBS, slides were incubated with AlexaFluor 555-conjugated secondary antibody (diluted to 50 ng/mL in 3% BSA/PBS) (Thermo Fisher Scientific, Waltham, MA, USA, A31570) for 1 h at room temperature. After washing (3 × 10 min with PBS), slides were mounted in Fluoromount-G (Southern Biotech., Birmingham, AL, USA). Cells were recorded using Leica TCS SP8 (Leica Microsystems, Wetzlar, Germany) confocal microscope.

[4] = design: method as in PMID 29318022; settings: generally well tolerated; cited from earlier work
U87 (glioblastoma) cells = test system: U87 (glioblastoma) cells; design: method as in PMID 31865147; settings: cited from earlier work
[5] = test system: HeLa (cervical cancer) cells; design: method as in PMID 31865147; settings: cited from earlier work
normal cell lines = test system: normal cell lines; design: method as in PMID 31865147; settings: cited from earlier work
[6] = MTT, 48 h, mean ± SEM, read-out: HDF-A IC50

Row | SMILES | melting point [°C] | viability at 48 h, 100 µM [1] [%] | IC50 (HCT116 cells [2]) [µM] | IC50 (HEK293 cells) [µM] | other results
1 | COc1ccc(O)c(/C=C/c2ccc([N+](=O)[O-])cc2[N+](=O)[O-])c1 [Compound 1d, (E)-2-hydroxy-5-methoxy-2′,4′-dinitrostilbene] | 168 | < 30 | 18 ± 3 | 33 ± 2 | IC50 (MCF-7 cells): 47 ± 1 µM; IC50 (HDF-A cells; [6]): 40 ± 2 µM; effect on microtubular network (HCT116 cells [3]): density of the microtubular network was decreased
2 | COc1ccc(/C=C/c2ccc([N+](=O)[O-])cc2[N+](=O)[O-])c(O)c1 [Compound 1c, (E)-2-hydroxy-4-methoxy-2′,4′-dinitrostilbene] |  | < 30 | 38 ± 5 | 34 ± 4 | IC50 (MCF-7 cells): 43 ± 2 µM; IC50 (HDF-A cells; [6]): 40 ± 4 µM
3 | Nc1ccc2c(c1)Oc1ccc3ccccc3c1C=C2 [Compound 3h, benzo[b]naphtho[1,2-f]oxepin-9-amine] | 172 | < 30 | 66 ± 2 | 48 ± 3 | IC50 (HDF-A cells; predicted IC50, above the maximum concentration tested (100 μM), read-out: HDF-A IC50 (predicted)): > 100 µM
4 | COc1cccc2c1Oc1cc(N)ccc1C=C2 [Compound 3b, 6-methoxydibenzo[b,f]oxepin-3-amine] |  |  |  |  | cell viability (in words) (HCT116 cells [2]): only minimally affected
5 | COc1cc(O)c(/C=C/c2ccc([N+](=O)[O-])cc2[N+](=O)[O-])cc1OC [Compound 1f, (E)-2-hydroxy-4,5-dimethoxy-2′,4′-dinitrostilbene] | 221 |  |  |  | cell viability (in words) (HCT116 cells [2]): only minimally affected
6 | COc1cc2c(cc1OC)Oc1cc([N+](=O)[O-])ccc1C=C2 [Compound 2f, 2,3-dimethoxy-7-nitrodibenzo[b,f]oxepine] |  |  |  |  | cell viability (in words) (HCT116 cells [2]): only minimally affected
7 | O=[N+]([O-])c1ccc(/C=C/c2ccccc2O)c([N+](=O)[O-])c1 [Compound 1a, (E)-2-hydroxy-2′,4′-dinitrostilbene] | 192 | < 30 | 23 ± 1 | 18 ± 1 | IC50 (MCF-7 cells): 36 ± 2 µM; IC50 (HDF-A cells; [6]): 38 ± 1 µM
8 | COc1cccc(/C=C/c2ccc([N+](=O)[O-])cc2[N+](=O)[O-])c1O [Compound 1b, (E)-2-hydroxy-3-methoxy-2′,4′-dinitrostilbene] | 182 |  |  |  | cell viability (in words) (HCT116 cells [2]): only minimally affected
9 | COc1ccc(/C=C\c2cc(OC)c(OC)c(OC)c2)cc1OP(=O)(O)O [CA4P/fosbretabulin, combretastatin A-4 phosphate] |  |  |  |  | side effect [4]: acute but transient hypertension
10 | COc1cc2c(cc1OC)Oc1cc(N)ccc1C=C2 [Compound 3f, 7,8-dimethoxydibenzo[b,f]oxepin-3-amine] |  |  |  |  | cell viability (in words) (HCT116 cells [2]): only minimally affected
11 | COc1cccc(O)c1/C=C/c1ccc([N+](=O)[O-])cc1[N+](=O)[O-] | 212 |  |  |  | 
12 | CC(=O)Oc1ccc2c(c1)Oc1cc(N)ccc1C=C2 [Compound 3j, 7-aminodibenzo[b,f]oxepin-3-yl acetate] | 145 |  |  |  | 
13 | O=[N+]([O-])c1ccc(/C=C/c2ccc(O)cc2O)c([N+](=O)[O-])c1 [Compound 1i, (E)-2,4-dihydroxy-2′,4′-dinitrostilbene] | 201 | < 30 | 52 ± 2 | 54 ± 2 | IC50 (MCF-7 cells): 69 ± 3 µM; IC50 (HDF-A cells; [6]): 41 ± 2 µM
14 | COc1ccc2c(c1)C=Cc1ccc(N)cc1O2 [Compound 3d, 8-methoxydibenzo[b,f]oxepin-3-amine] | 158 |  |  |  | 

Now from value to compound, other results behind:

Row | melting point [°C] | SMILES | viability at 48 h, 100 µM [1] [%] | IC50 (HCT116 cells [2]) [µM] | IC50 (HEK293 cells) [µM] | other results
15 | 184 | COc1cccc2c1Oc1cc([N+](=O)[O-])ccc1C=C2 [Compound 2b, 6-methoxy-3-nitrodibenzo[b,f]oxepine] |  |  |  | cell viability (in words) (HCT116 cells [2]): only minimally affected
16 | 156 | O=[N+]([O-])c1ccc2c(c1)Oc1ccccc1C=C2 [Compound 2a, 3-nitrodibenzo[b,f]oxepine] |  |  |  | 
17 | 189 | COc1ccc2c(c1)Oc1cc([N+](=O)[O-])ccc1C=C2 [Compound 2c, 3-methoxy-7-nitrodibenzo[b,f]oxepine] |  |  |  | 
18 | 164 | O=[N+]([O-])c1ccc2c(c1)Oc1cc(O)ccc1C=C2 [Compound 2i, 7-nitrodibenzo[b,f]oxepin-3-ol] | < 30 | 55 ± 4 | 88 ± 5 | IC50 (MCF-7 cells): 67 ± 6 µM; IC50 (HDF-A cells; [6]): 93 ± 7 µM
19 | 133 | CC(=O)Oc1ccc2c(c1)Oc1cc([N+](=O)[O-])ccc1C=C2 [Compound 2j, 7-nitrodibenzo[b,f]oxepin-3-yl acetate] | < 30 | 53 ± 3 | 85 ± 4 | IC50 (MCF-7 cells): 36 ± 3 µM
20 | 167 | COc1ccc2c(c1)C=Cc1ccc([N+](=O)[O-])cc1O2 [Compound 2d, 2-methoxy-7-nitrodibenzo[b,f]oxepine] |  |  |  | 
21 | 216 | O=[N+]([O-])c1ccc2c(c1)C=Cc1ccc([N+](=O)[O-])cc1O2 |  |  |  | 
22 | 197 | O=[N+]([O-])c1ccc2c(c1)Oc1ccc3ccccc3c1C=C2 [Compound 2h, 9-nitrobenzo[b]naphtho[1,2-f]oxepine] |  |  |  | anti-cancer activity compared with HTC116 cells (U87 (glioblastoma) cells): significantly more active; anti-cancer activity compared with HTC116 cells [5]: significantly more active; activity in normal cell lines (normal cell lines): severe activity
